Drawing on patent US7517888B2, “A1 adenosine receptor antagonists” (CV Therapeutics, Inc., priority 2004, dated 2009), this text covers Ki for twelve compounds.

One experiment deals with T1, Human-A2B (HEK-A2B) (Homo sapiens, UniProt P29275).
T1 construct: expressed in transfected cells; host or cells: HEK-293 cells, stably transfected (HEK-A2B)
T1 sequence (P29275 1-332): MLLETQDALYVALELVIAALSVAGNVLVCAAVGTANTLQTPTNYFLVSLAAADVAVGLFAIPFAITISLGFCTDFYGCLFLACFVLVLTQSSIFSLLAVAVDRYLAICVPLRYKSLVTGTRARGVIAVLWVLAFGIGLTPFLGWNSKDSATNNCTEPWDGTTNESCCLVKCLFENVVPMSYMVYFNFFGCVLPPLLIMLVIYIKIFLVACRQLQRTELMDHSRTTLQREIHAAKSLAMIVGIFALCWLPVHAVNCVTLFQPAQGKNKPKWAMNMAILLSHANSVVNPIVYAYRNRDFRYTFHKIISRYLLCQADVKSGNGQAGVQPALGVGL
Kind of experiment: Radioligand binding, human A2B AdoR, HEK-A2B membranes. On the procedure:
(§1) The cDNAs for human A1, A2A, A2B or A3 AdoRs were prepared by RT-PCR from total RNA of human cells or tissues and sequenced on both strands. The expression vector containing each of these cDNAs and a second vector containing a neomycin or puromycin-resistance gene were introduced to HEK-293 or CHO cells by Lipofectin-Plus (Life Technology). Colonies were selected by growing transfected cells in the presence of neomycin or puromycin. Stably transfected cells were maintained in Dulbecco's modified Eagle's medium (DMEM) or F-12 medium with 10% fetal bovine serum, 100 μg/ml penicillin, 100 μg/ml streptomycin and appropriate concentrations of neomycin or puromycin. These stably transfected cells were referred to as HEK-“AdoR” or CHO-“AdoR” depending on the receptors that they express. The cell lines used routinely were CHO-A1, HEK-A2A, HEK-A2B.and CHO-A3 cells. In addition, hamster DDT1 MF-2 cells that express endogenous A1 AdoRs were also used to determine the binding activities of compounds for A1 AdoRs.
(§2) Monolayers of transfected cells or DDT1 MF-2 were washed with phosphate buffered saline (PBS) and harvested in a buffer containing 10 mM HEPES (pH 7.4), 10 mM EDTA and protease inhibitors. The cells were homogenized in polytron for 1 minute at setting 4 and centrifuged at 29000 g for 15 minutes at 4° C. The cell pellets were washed with a buffer containing 10 mM HEPES (pH7.4), 1 mM EDTA and protease inhibitors, and were resuspended in the same buffer supplemented with 10% sucrose. Frozen aliquots were kept at −80° C.
[…] The amounts of radioligands that bound to the GF/B filter plates were determined by scintillation counting. Nonspecific binding were determined in the presence of 1-10 μM of cold ligands. Bmax and KD values were calculated using GraphPad software.

The next experiment deals with T2, Human-A1 (CHO-A1) (Homo sapiens, UniProt P30542).
T2 construct: expressed in transfected cells; host or cells: CHO cells, stably transfected (CHO-A1)
T2 sequence (P30542 1-326): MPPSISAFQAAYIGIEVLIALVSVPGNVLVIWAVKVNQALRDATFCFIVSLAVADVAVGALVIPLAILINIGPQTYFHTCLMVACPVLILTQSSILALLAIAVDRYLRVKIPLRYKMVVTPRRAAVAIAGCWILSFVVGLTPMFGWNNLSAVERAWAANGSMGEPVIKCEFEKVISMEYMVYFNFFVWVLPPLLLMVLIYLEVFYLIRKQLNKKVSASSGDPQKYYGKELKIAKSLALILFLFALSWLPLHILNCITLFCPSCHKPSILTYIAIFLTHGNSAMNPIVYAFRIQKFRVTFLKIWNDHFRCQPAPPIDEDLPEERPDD
Kind of experiment: Radioligand binding, human A1 AdoR, CHO-A1 membranes. On the procedure:
as §1, §2
(§3) The affinities of compounds for A1, A2A, A2B or A3 AdoRs were determined in competition studies using radioligands such as ^3H—CPX (A1 antagonist), or ^3H—CCPA (A1 agonist), ^3H-ZM241385 (A2A antagonist) or ^3H-CGS21680 (A2A agonist), ^3H-ZM241385 (A2B antagonist) or ^125I-AB-MECA (A3 agonist) and membranes of corresponding cells. […] The assays were incubated for 60-90 minutes, stopped by filtration onto GF/B filter plates using Packard Harvester and washed four times with ice-cold TM buffer (10 mM Tris, 1 mM MgCl2, pH 7.4). The amounts of radioligands that bound to the GF/B filter plates were determined by scintillation counting. Nonspecific binding were determined in the presence of 1-10 μM of cold ligands. Bmax and KD values were calculated using GraphPad software.

The target of the next experiment is T3, Hamster-A1 (DDT1 MF-2) (Mesocricetus auratus, UniProt A0A1U8BVR4).
T3 sequence (A0A1U8BVR4 1-326): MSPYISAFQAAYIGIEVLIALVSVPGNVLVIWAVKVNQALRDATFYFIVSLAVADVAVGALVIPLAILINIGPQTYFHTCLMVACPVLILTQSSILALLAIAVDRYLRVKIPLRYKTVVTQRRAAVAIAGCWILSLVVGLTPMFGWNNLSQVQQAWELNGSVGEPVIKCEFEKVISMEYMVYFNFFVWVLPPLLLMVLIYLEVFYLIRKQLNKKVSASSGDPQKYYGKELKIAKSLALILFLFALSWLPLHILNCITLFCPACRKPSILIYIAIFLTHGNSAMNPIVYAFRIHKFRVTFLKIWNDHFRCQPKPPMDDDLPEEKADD
Kind of experiment: Radioligand binding, hamster A1 AdoR, DDT1 MF-2 membranes. Here is the method: as §1, §2, §3

A further experiment addresses T4, Human-A2A (HEK-A2A) (Homo sapiens, UniProt P29274).
T4 construct: expressed in transfected cells; host or cells: HEK-293 cells, stably transfected (HEK-A2A)
Kind of experiment: Radioligand binding, human A2A AdoR, HEK-A2A membranes. On the procedure: as §1, §2, §3

The mark [1] stands for this setting: 3H-CGS21680 radioligand (footnote c), HEK-A2B membranes, read-out: Ki (low) Human-A2B HEK-A2B.
Setting [2] is: 3H-CPX radioligand, CHO-A1 membranes, read-out: Ki (low) Human-A1 CHO-A1.
Where [3] appears, read: 3H-CPX radioligand, DDT1 MF-2 membranes, read-out: Ki (low) Hamster-A1 DDT1 MF-2.
[4] abbreviates: 3H-ZM241385 radioligand, HEK-A2A membranes, read-out: Ki (low) Human-A2A HEK-A2A.

Read-outs that look alike come from different tables or passages of the source. Some results are limits rather than exact numbers.

T4 sequence (P29274 whole entry): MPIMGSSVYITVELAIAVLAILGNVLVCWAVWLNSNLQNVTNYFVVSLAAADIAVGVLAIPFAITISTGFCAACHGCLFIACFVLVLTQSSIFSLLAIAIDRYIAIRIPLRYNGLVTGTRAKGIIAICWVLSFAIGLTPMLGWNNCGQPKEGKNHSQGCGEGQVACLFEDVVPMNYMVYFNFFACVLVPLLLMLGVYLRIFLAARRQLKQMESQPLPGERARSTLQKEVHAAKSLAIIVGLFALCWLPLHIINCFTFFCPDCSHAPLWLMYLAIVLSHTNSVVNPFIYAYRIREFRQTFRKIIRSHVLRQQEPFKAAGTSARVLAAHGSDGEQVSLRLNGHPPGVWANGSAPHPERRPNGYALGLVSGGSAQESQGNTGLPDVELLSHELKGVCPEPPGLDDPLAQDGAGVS

Usually Ki stands for a dissociation constant, usually derived from enzyme kinetics or from competition with a known ligand. As to `Cn1c(-c2ccc(Cl)cc2)nc2c(NC3CCCC3)ncnc21` [[8-(4-chlorophenyl)-9-methylpurin-6-yl]cyclopentylamine], the inhibition constant Ki is above 6670 nM on Human-A2B (HEK-A2B) (setting [1]), 9 nM at Human-A1 (CHO-A1) (setting [2]), 10 nM on Hamster-A1 (DDT1 MF-2) (setting [3]) and above 5000 nM at Human-A2A (HEK-A2A) (setting [4]).
On to `Cn1c(-c2ccc(O)cc2)nc2c(NC3CCCC3)ncnc21` [4-[6-(cyclopentylamino)-9-methylpurin-8-yl]phenol], for which the Ki on Human-A2B (HEK-A2B) is above 6670 nM; on Human-A1 (CHO-A1), 9 nM; on Hamster-A1 (DDT1 MF-2), 4 nM; at Human-A2A (HEK-A2A), above 5000 nM.
In the case of `Cn1c(-c2cccnc2)nc2c(NC3CCCC3)ncnc21` [cyclopentyl(9-methyl-8-(3-pyridyl)purin-6-yl)amine], the inhibition constant Ki was above 6670 nM at Human-A2B (HEK-A2B) (setting [1]), 184 nM on Human-A1 (CHO-A1) (setting [2]), 84 nM on Hamster-A1 (DDT1 MF-2) (setting [3]) and above 5000 nM at Human-A2A (HEK-A2A) (setting [4]).
For `COc1ccc(-c2nc3c(NC4CCCC4)ncnc3n2C)cc1` [cyclopentyl[8-(4-methoxyphenyl)-9-methylpurin-6-yl]amine], the Ki is above 6670 nM on Human-A2B (HEK-A2B) (setting [1]), 32 nM at Human-A1 (CHO-A1) (setting [2]), 22 nM at Hamster-A1 (DDT1 MF-2) (setting [3]) and above 5000 nM at Human-A2A (HEK-A2A) (setting [4]).
The corresponding values for `Cn1c(-c2cccc(Cl)c2)nc2c(NC3CCCC3)ncnc21` [[8-(3-chlorophenyl)-9-methylpurin-6-yl]cyclopentylamine] are above 6670 nM, 5 nM, 3 nM and above 5000 nM.
As to `CCn1c(-c2ccccc2)nc2c(NC3CCCCC3)ncnc21` [cyclohexyl(9-ethyl-8-phenylpurin-6-yl)amine], the Ki at Human-A2B (HEK-A2B) (setting [1]) is above 6670 nM; at Human-A1 (CHO-A1) (setting [2]), 11 nM; at Hamster-A1 (DDT1 MF-2) (setting [3]), 4 nM; on Human-A2A (HEK-A2A) (setting [4]), above 5000 nM.
The corresponding values for `Cc1cccc(-c2nc3c(NC4CCCC4)ncnc3n2C)c1` [cyclopentyl[9-methyl-8-(3-methylphenyl)purin-6-yl]amine] are above 6670 nM, 5 nM, 2 nM and above 5000 nM.
As to `CCCn1c(-c2ccccc2)nc2c(NC3CCCCC3)ncnc21` [cyclohexyl(8-phenyl-9-propylpurin-6-yl)amine], the Ki at Human-A2B (HEK-A2B) (setting [1]) is above 6670 nM; at Human-A1 (CHO-A1) (setting [2]) it was 25 nM; on Hamster-A1 (DDT1 MF-2) (setting [3]), 11 nM; on Human-A2A (HEK-A2A) (setting [4]) it was above 5000 nM.
The corresponding values for `Cn1c(-c2ccc(F)cc2)nc2c(NC3CCCC3)ncnc21` [cyclopentyl[8-(4-fluorophenyl)-9-methylpurin-6-yl]amine] are above 6670 nM, 5 nM, 1 nM and above 5000 nM.
Consider `Cc1ccccc1-c1nc2c(NC3CCCC3)ncnc2n1C` [cyclopentyl[9-methyl-8-(2-methylphenyl)purin-6-yl]amine], for which the Ki at Human-A2B (HEK-A2B) (setting [1]) is above 6670 nM; on Human-A1 (CHO-A1) (setting [2]) it was 42 nM; at Hamster-A1 (DDT1 MF-2) (setting [3]), 20 nM; at Human-A2A (HEK-A2A) (setting [4]), above 5000 nM.
The like results for `Cn1c(-c2ccccc2)nc2c(NC3CCCCC3)ncnc21` [cyclohexyl(9-methyl-8-phenylpurin-6-yl)amine] were, in that order, above 6670 nM, 2 nM, 1 nM and above 5000 nM.
The corresponding values for `Cc1ccc(-c2nc3c(NC4CCCC4)ncnc3n2C)cc1` [cyclopentyl[9-methyl-8-(4-methylphenyl)purin-6-yl]amine] are above 6670 nM, 5 nM, 3 nM and above 5000 nM.
